In PubChem BioAssay AID276 (DTP/NCI, 2004):
Toxic doses and inconclusive results are not listed.

System: B6C3F1 mice, Lewis lung carcinoma iv, survival T/C
Experiment: NCI In Vivo Anticancer Drug Screen. Data for tumor model Lewis Lung Carcinoma (intravenous) in B6C3F1 mice
Conditions: endpoint: median survival time, schedule: Q01DX009 (ip), higher = longer survival
Description: The antitumor activity of compounds was measured in mice bearing transplantable tumors. Survival or tumor size were measured and the results are expressed as the measurement made in the treated group (T) divided by the measurement made in the vehicle treated control group (C). The tumor model used in this assay is Lewis Lung Carcinoma (intravenous) in B6C3F1 mice

[1] = dose: 25.0 mg/kg/injection, vehicle: saline
[2] = dose: 50.0 mg/kg/injection, vehicle: saline
[3] = dose: 100.0 mg/kg/injection, vehicle: saline
[4] = dose: 12.5 mg/kg/injection, vehicle: saline
[5] = dose: 2.5 mg/kg/injection, vehicle: saline
[6] = dose: 5.0 mg/kg/injection, vehicle: saline
[7] = dose: 10.0 mg/kg/injection, vehicle: saline
[8] = dose: 12.5 mg/kg/injection, vehicle: saline with Tween-80
[9] = dose: 25.0 mg/kg/injection, vehicle: saline with Tween-80
[10] = dose: 50.0 mg/kg/injection, vehicle: saline with Tween-80
[11] = dose: 100.0 mg/kg/injection, vehicle: saline with Tween-80
[12] = dose: 200.0 mg/kg/injection, vehicle: saline with Tween-80
[13] = dose: 400.0 mg/kg/injection, vehicle: saline with Tween-80

In the case of `COc1cccc2c1C(=O)c1c(O)c3c(c(O)c1C2=O)C[C@H](O)C[C@@H]3OC1CC(N)C(O)C(C)O1` (some centres undefined), the T/C (dose: 0.75 mg/kg/injection, vehicle: water) is reported as 100 % of control, the T/C (dose: 1.5 mg/kg/injection, vehicle: water) is reported as 104 % of control and the T/C (dose: 3.0 mg/kg/injection, vehicle: water) is reported as 100 % of control. For the same compound, the T/C (dose: 6.0 mg/kg/injection, vehicle: water) was 104 % of control.
`CC(=O)Oc1c(C)[nH]ccc1=O` was tested, and the T/C [1] was 97 % of control, the T/C [2] was 96 % of control and the T/C [3] was 96 % of control. For the same compound, the T/C (dose: 200.0 mg/kg/injection, vehicle: saline) was 103 % of control and the T/C (dose: 400.0 mg/kg/injection, vehicle: saline) was 114 % of control.
`COc1cc2cc3cc4cc(OC)c(OC)cc4c(C)[n+]3cc2cc1OC` (tested in a mixture with another compound) was tested, and the T/C [4] was 112 % of control, the T/C [1] was 106 % of control and the T/C [2] was 117 % of control. The T/C [3] was 120 % of control.
For `CC(C)N1CC(COc2cccc3ccccc23)OP1(=O)N(CCCl)CCCl` (centres undefined), the T/C (dose: 1.56 mg/kg/injection, vehicle: distilled water + Tween-80) was 98 % of control, the T/C (dose: 3.13 mg/kg/injection, vehicle: distilled water + Tween-80) was 96 % of control and the T/C (dose: 6.25 mg/kg/injection, vehicle: distilled water + Tween-80) was 101 % of control. For the same compound, the T/C (dose: 12.5 mg/kg/injection, vehicle: distilled water + Tween-80) was 102 % of control, the T/C (dose: 25.0 mg/kg/injection, vehicle: distilled water + Tween-80) was 102 % of control and the T/C (dose: 50.0 mg/kg/injection, vehicle: distilled water + Tween-80) was 95 % of control. The T/C (dose: 100.0 mg/kg/injection, vehicle: distilled water + Tween-80) was 106 % of control, the T/C (dose: 200.0 mg/kg/injection, vehicle: distilled water + Tween-80) was 90 % of control and the T/C (dose: 400.0 mg/kg/injection, vehicle: distilled water + Tween-80) was 90 % of control.
With `CN(C)c1ccc2c(NCCCCCCNc3ccnc4cc(N(C)C)ccc34)ccnc2c1` the T/C (dose: 1.56 mg/kg/injection, vehicle: distilled water + Tween-80 + alcohol) was 97 % of control, the T/C (dose: 3.12 mg/kg/injection, vehicle: distilled water + Tween-80 + alcohol) was 106 % of control and the T/C (dose: 6.25 mg/kg/injection, vehicle: distilled water + Tween-80 + alcohol) was 111 % of control. For the same compound, the T/C (dose: 12.5 mg/kg/injection, vehicle: distilled water + Tween-80 + alcohol) was 97 % of control and the T/C (dose: 25.0 mg/kg/injection, vehicle: distilled water + Tween-80 + alcohol) was 116 % of control.
`C=C(C)[C@H]1CN[C@H](C(=O)O)[C@H]1CC(=O)O` was tested, and the T/C (dose: 0.31 mg/kg/injection, vehicle: saline) was 113 % of control, the T/C (dose: 0.62 mg/kg/injection, vehicle: saline) was 103 % of control and the T/C (dose: 1.25 mg/kg/injection, vehicle: saline) was 112 % of control. The T/C [5] was 100 % of control, the T/C [6] was 112 % of control and the T/C [7] was 107 % of control.
In the case of `COc1cc(C2c3cc4c(cc3[C@@H](OC3OC5CO[C@@H](C)OC5C(O)C3O)[C@H]3COC(=O)C23)OCO4)cc(OC)c1OC` (some centres undefined), the T/C [4] is reported as 113 % of control, the T/C [1] is reported as 121 % of control and the T/C [2] is reported as 117 % of control. The T/C [3] was 191 % of control.
With `CCS/C(SC)=C(/c1ccccc1)[P+](c1ccccc1)(c1ccccc1)c1ccccc1` the T/C (dose: 0.12 mg/kg/injection, vehicle: Klucel (hydroxypropylcellulose) (HPC)) was 106 % of control, the T/C (dose: 0.25 mg/kg/injection, vehicle: Klucel (hydroxypropylcellulose) (HPC)) was 108 % of control and the T/C (dose: 0.5 mg/kg/injection, vehicle: Klucel (hydroxypropylcellulose) (HPC)) was 101 % of control. For the same compound, the T/C (dose: 1.0 mg/kg/injection, vehicle: Klucel (hydroxypropylcellulose) (HPC)) was 104 % of control, the T/C (dose: 1.5 mg/kg/injection, vehicle: Klucel (hydroxypropylcellulose) (HPC)) was 100 % of control and the T/C (dose: 2.0 mg/kg/injection, vehicle: Klucel (hydroxypropylcellulose) (HPC)) was 93 % of control.
`COC(=O)NC1C(C)OC(OC2C/C=C(/C)C3C=CC4C(OC5CC(OC6CCC(OC7CC(O)C(OC8CCC(O)C(C)O8)C(C)O7)C(C)O6)C(OC(C)=O)C(C)O5)C(C)CC(C)C4C3(C)/C(O)=C3/C(=O)OC4(CC(C=O)=CC(O)C4/C=C\2C)C3=O)CC1(C)[N+](=O)[O-]` (centres undefined) was tested, and the T/C (dose: 1.25 mg/kg/injection, vehicle: water) was 108 % of control, the T/C (dose: 2.5 mg/kg/injection, vehicle: water) was 97 % of control and the T/C (dose: 5.0 mg/kg/injection, vehicle: water) was 98 % of control.
In the case of `CNC(=O)O/N=C(\CN=[N+]=[N-])C(C)(C)C`, the T/C (dose: 0.13 mg/kg/injection, vehicle: saline) is reported as 102 % of control, the T/C (dose: 0.25 mg/kg/injection, vehicle: saline) is reported as 102 % of control and the T/C (dose: 0.5 mg/kg/injection, vehicle: saline) is reported as 106 % of control. For the same compound, the T/C (dose: 1.0 mg/kg/injection, vehicle: saline) was 105 % of control.
In the case of `CCCCOCN(COCCCC)C12CC3CC(CC(C3)C1)C2`, the T/C [8] is reported as 101 % of control, the T/C [9] is reported as 111 % of control and the T/C [10] is reported as 97 % of control. For the same compound, the T/C [11] was 106 % of control and the T/C [12] was 100 % of control.
For `COc1cc(Cl)ccc1C`, the T/C [8] was 102 % of control, the T/C [9] was 98 % of control and the T/C [10] was 100 % of control. For the same compound, the T/C [11] was 97 % of control and the T/C [12] was 97 % of control.
For `C1OCN2CSCC12` (centres undefined), the T/C [8] was 103 % of control, the T/C [9] was 103 % of control and the T/C [10] was 102 % of control. The T/C [11] was 98 % of control, the T/C [12] was 96 % of control and the T/C [13] was 89 % of control.
With `C(C#CCN1CCOCC1)#CCN1CCOCC1` the T/C (dose: 6.25 mg/kg/injection, vehicle: Klucel (hydroxypropylcellulose) (HPC)) was 108 % of control, the T/C (dose: 12.5 mg/kg/injection, vehicle: Klucel (hydroxypropylcellulose) (HPC)) was 101 % of control and the T/C (dose: 25.0 mg/kg/injection, vehicle: Klucel (hydroxypropylcellulose) (HPC)) was 102 % of control. For the same compound, the T/C (dose: 50.0 mg/kg/injection, vehicle: Klucel (hydroxypropylcellulose) (HPC)) was 100 % of control, the T/C (dose: 100.0 mg/kg/injection, vehicle: Klucel (hydroxypropylcellulose) (HPC)) was 102 % of control and the T/C (dose: 400.0 mg/kg/injection, vehicle: Klucel (hydroxypropylcellulose) (HPC)) was 106 % of control.
`O=[N+]([O-])c1ccc(N2CCOCC2)c2c1no[n+]2[O-]` was tested, and the T/C (dose: 6.25 mg/kg/injection, vehicle: saline with Tween-80) was 118 % of control, the T/C [8] was 102 % of control and the T/C [9] was 111 % of control. The T/C [10] was 111 % of control and the T/C [11] was 98 % of control.
With `CC(Oc1ccccc1-c1ccccc1)C(=O)N(C)C` (centres undefined) the T/C [8] was 106 % of control, the T/C [9] was 110 % of control and the T/C [10] was 107 % of control. The T/C [11] was 96 % of control, the T/C [12] was 101 % of control and the T/C [13] was 100 % of control.
`O=C1c2ccccc2C(=O)c2c(NCCNCCO)ccc(O)c21` was tested, and the T/C [5] was 104 % of control, the T/C [6] was 116 % of control and the T/C [7] was 96 % of control. The T/C (dose: 20.0 mg/kg/injection, vehicle: saline) was 104 % of control, the T/C (dose: 40.0 mg/kg/injection, vehicle: saline) was 117 % of control and the T/C (dose: 80.0 mg/kg/injection, vehicle: saline) was 117 % of control.
